# Experiments:
# HSP90 [1] = experiment: Effects of Tempol on gene expression in cardiac tissue of mice, chip-based microarray; format: in vivo
# Protocol: To assess the effects of Tempol on gene expression, Tempol was administered to experimental mice at a dose of 5 mg/g of food from 14 months to 31 months after birth. Mice receiving the same food without the addition of Tempol were used as a negative control. At the age of 31 months, the experimental animals were sacrificed and the hearts were surgically removed. The expression of a broad spectrum of genes in the cardiac tissue was assessed using chip-based microarray technology. Such chips are well known in the art and are widely used to assess gene expression.
# HSP90 [2] = experiment: Treating a human subject with Tempol, serum level of HSP90 following treatment; format: in vivo; settings: 2000 mg per day for 180 days
# Protocol: (§1) A 70-kilogram human subject over the age of 65 is identified as having, or known to have, or suspected of having an increased expression level of HSP90. The human subject is administered a dose of 2000 mg of Tempol (or another nitroxide antioxidant) per day for 180 days. This may be administered in a single dose, or may be administered as a number of smaller doses over a 24-hour period: for example, four 500-mg doses at […]. Following treatment, the serum level of HSP90, is decreased.
# as §1, with “subject” for “subject over the age of 65”
# as §1, with “65 and having a cardiovascular disease” for “65”, “for an increased expression level of HSP90. Or a 70-kilogram human subject over the age of 65 is” for “as having, or”, “have a cardiovascular disease and/or” for “have, or suspected of having an”
# as §1, with “at risk” for “over the age”, “developing colorectal cancer” for “65”, “for increased expression level of HSP90. Or a 70-kilogram human subject is” for “as having, or”, “be at risk” for “have, or suspected”, “developing colorectal cancer and/or have” for “having an”, “decreased. […]” for “decreased.”
# A 70-kilogram human subject having an infection (e.g., a bacterial, fungal, or viral infection) is identified for increased expression level of HSP90. Or a 70-kilogram human subject is known to have an infection and/or have increased expression level of HSP90. The human subject is administered a dose of 2000 mg of Tempol (or another nitroxide antioxidant) per day for 180 days. This may be administered in a single dose, or may be administered as a number of smaller doses over a 24-hour period: for example, four 500-mg doses at […]. Following treatment, the serum level of HSP90, is decreased.
compound,measurement,setting,value
"CC1(C)CC(O)CC(C)(C)N1[O] [Tempol, 4-hydroxy-2,2,6,6-tetramethylpiperidine-1-oxyl]",Fold change (expression of HSP90 in cardiac tissue after Tempol administration),"HSP90 [1]; Tempol 5 mg/g of food from 14 months to 31 months after birth, vs same food without Tempol, cardiac tissue at 31 months",−2.4
same,HSP90 expression in cardiac tissue,"HSP90 [1]; Tempol 5 mg/g of food from 14 to 31 months after birth, cardiac tissue, result in words",statistically significant decrease in expression
same,serum level of HSP90 following treatment,HSP90 [2]; Example 2: 70-kilogram human subject over the age of 65 with increased expression level of HSP90,decreased
same,serum level of HSP90 following treatment,HSP90 [2]; Example 3: 70-kilogram human subject with increased expression level of HSP90,decreased
same,serum level of HSP90 following treatment,HSP90 [2]; Example 4: 70-kilogram human subject over the age of 65 having a cardiovascular disease,decreased
same,serum level of HSP90 following treatment,HSP90 [2]; Example 5: 70-kilogram human subject at risk of developing colorectal cancer,decreased
same,serum level of HSP90 following treatment,"HSP90 [2]; Example 6: 70-kilogram human subject at risk of developing an autoimmune disease (e.g., rheumatoid arthritis)",decreased
same,serum level of HSP90 following treatment,HSP90 [2]; Example 7: 70-kilogram human subject at risk of developing a condition due to aging,decreased
same,serum level of HSP90 following treatment,"HSP90 [2]; Example 8: 70-kilogram human subject at risk of developing a neurodegenerative disease (e.g., Parkinson's Disease)",decreased
same,serum level of HSP90 following treatment,"HSP90 [2]; Example 9: 70-kilogram human subject having an infection (bacterial, fungal, or viral)",decreased
